One may read the EC50 as the concentration at which the effect is half-maximal. A word on the Emax: it is the size of the effect at its maximum, as opposed to the concentration needed.

The values that follow come from patent US9340506B2, “Acetamide derivatives as glucokinase activators, their process and medicinal applications” (ADVINUS THERAPEUTICS LIMITED, priority 2007, dated 2016).

For this assay, the target named is purified human recombinant GK (Homo sapiens (Human), UniProt P35557). Kind of assay: Glucokinase activity assay (coupled enzymatic, G6PD/NADH absorbance at 340 nm). The format is biochemical. Conditions: for EC50: EC50 of % change in S0.5 of glucokinase for glucose, sigmoidal fit, read-out: EC50 (with respect to % ΔS0.5); for Emax / % Emax (with respect to % ΔS0.5): Emax of % change in S0.5 of glucokinase for glucose, vehicle S0.5 = 0%, 0 mM glucose = 100%; for Emax: read-out: % Emax (with respect to % ΔS0.5). From the text:
The glucokinase (GK) assay is a coupled enzymatic assay. GK catalyzes the first step of glycolysis, the conversion of glucose to glucose-6-phosphate (G6P) in the presence of ATP. G6P in turn is converted by glucose-6-phosphate dehydrogenase (G6PD) to 6-phosphogluconate, a process that requires NAD, resulting in NADH formation. Since the GK-catalyzed step is the rate-limiting step of this coupled enzymatic process, the rate of accumulation of 6-phosphogluconate and NADH is directly proportional to the rate of glucose phosphorylation by GK. The rate of the GK-catalyzed reaction can therefore be measured by monitoring the increase in NADH absorbance at 340 nm.
The assay is carried out according to the protocol outlined in Hariharan et al (1997), Diabetes 46: 11-16. Briefly, the test compounds are incubated in a reaction mix containing 25 mM HEPES (pH 7.2), 10 mM MgCl2, 100 mM KCl, 5 mM ATP, 2 mM DTT, 0.5 mM NAD, 1 U/mL Leuconostoc mesenteroides G6PD, 0.3 U/mL of purified human recombinant GK, and different concentrations of glucose. Enzymatic activity is calculated from the initial reaction velocity, measured from the change in NADH absorbance as a function of time.
Compounds described in formula (I), in concentration ranges from 1.0 nM to 500 μM, are tested in the purified human recombinant glucokinase assay described above.
A compound is considered to be a glucokinase activator if it, in its testable range of concentrations, yields a higher rate of glucose phosphorylation than in its absence at a particular glucose concentration, for example at 5 mM glucose.
Compounds of general formula (I) are tested in the in vitro GK enzymatic assay to monitor dose-dependent effect on glucokinase activation (in kinetic mode), as described above, at various glucose concentrations. The S0.5 of glucokinase for glucose at different concentration of each compound of interest is calculated from the following modified version of the Michaelis-Menten equation, V=Vmax [S]^n/(S0.5^n+[S]^n), where [S] is the glucose concentration and n is the Hill coefficient (taken as 1.7 to account for the sigoidal kinetics of glucokinase with respect to glucose). The S0.5 is plotted against the log of the compound concentration. The change in the S0.5 of glucokinase (ΔS0.5) for glucose is calculated by subtracting the S0.5 at each concentration of the compound from the S0.5 in the vehicle control. The ΔS0.5 is then normalized to a percent scale, where the S0.5 in the vehicle control is set to 0% and 0 mM glucose is set to 100%. The % ΔS0.5 is then plotted against the log of the compound concentration. The EC50 and Emax of % change in S0.5 is obtained from the sigoidal fit of the data. Detailed protocol has been described in our copending application no. 409/CHE/2007 which is incorporated herein by reference. Characterization data of some representative glucokinase activators of the present disclosure, which are illustrative but not limiting, are given in table I below.

Sequence of purified human recombinant GK (P35557 whole entry): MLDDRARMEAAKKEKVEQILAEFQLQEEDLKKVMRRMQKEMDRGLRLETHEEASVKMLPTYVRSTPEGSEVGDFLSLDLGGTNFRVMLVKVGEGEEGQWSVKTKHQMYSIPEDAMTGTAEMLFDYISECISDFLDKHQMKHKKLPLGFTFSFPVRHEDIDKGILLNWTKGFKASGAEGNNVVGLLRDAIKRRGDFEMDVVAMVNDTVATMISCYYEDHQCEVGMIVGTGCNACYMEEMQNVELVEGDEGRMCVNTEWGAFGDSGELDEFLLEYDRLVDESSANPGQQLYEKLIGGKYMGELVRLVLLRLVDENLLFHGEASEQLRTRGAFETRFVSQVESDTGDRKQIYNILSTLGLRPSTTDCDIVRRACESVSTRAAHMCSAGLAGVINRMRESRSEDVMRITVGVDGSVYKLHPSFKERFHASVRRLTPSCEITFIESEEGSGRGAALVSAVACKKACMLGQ

As to `O=C(O)c1cc(Oc2cnc(NC(=O)C(OC3CCOCC3)c3ccc(S(=O)(=O)C4CC4)cc3)s2)ccn1` (stereo not shown) [Example B-49, 4-[2-[[2-(4-cyclopropylsulfonylphenyl)-2-tetrahydropyran-4-yloxy-acetyl]amino]thiazol-5-yl]oxypyridine-2-carboxylic acid], the EC50 worked out at 0.57 µM and the Emax was determined as 92%.
Taken in the same sequence, the figures for `Cc1cc(Oc2cnc(NC(=O)C(O[C@@H]3CCOC3)c3ccc(S(=O)(=O)C4CC4)cc3)s2)ccc1C(=O)O` (single isomer, unassigned; (+)) [Example G14A] were 0.38 µM and 99%.
For `Cc1cc(Oc2cnc(NC(=O)C(Oc3ccc(F)cc3F)c3ccc(S(=O)(=O)C4CC4)cc3)s2)ccc1C(=O)O` (stereo not shown) [Example B-9, 4-[2-[[2-(4-cyclopropylsulfonylphenyl)-2-(2,4-difluorophenoxy)acetyl]amino]thiazol-5-yl]oxy-2-methyl-benzoic acid], the EC50 was found to be 0.093 µM and the Emax was 89%.
Taken in the same sequence, the figures for `O=C(O)c1cnn(-c2cnc(NC(=O)C(OC3CCOCC3)c3ccc(S(=O)(=O)C4CC4)cc3)s2)c1` (single isomer, unassigned; (+)) [Example G12A, (+)1-[2-[[2-(4-cyclopropylsulfonylphenyl)-2-tetrahydropyran-4-yloxy-acetyl]amino]thiazol-5-yl]pyrazole-4-carboxylic acid] were 0.3 µM and 90%.
For `O=C(NC1CC1)c1ccc(Oc2cnc(NC(=O)C(OC3CCOCC3)c3ccc(S(=O)(=O)C4CC4)cc3)s2)cc1` (stereo not shown) [Example C3, N-Cyclopropyl-4-[2-[[2-(4-cyclopropylsulfonylphenyl)-2-tetrahydropyran-4-yloxy-acetyl]amino]thiazol-5-yl]oxy-benzamide], the EC50 was determined as 0.13 µM and the Emax worked out at 94%.
For `CC(C)(C)OC(=O)c1ccc(NC(=O)C(Oc2ccc(F)cc2F)c2ccc(S(=O)(=O)N3CCOCC3)cc2)nc1` (stereo not shown) [Example A-58, tert-Butyl 6-[[2-(2,4-difluorophenoxy)-2-(4-morpholinosulfonylphenyl)acetyl]amino]pyridine-3-carboxylate], the EC50 is more than 10 µM.
In the case of `O=C(O)c1cncc(Oc2cnc(NC(=O)C(OC3CCOCC3)c3ccc(S(=O)(=O)C4CC4)cc3)s2)c1` (single isomer, unassigned; (+)) [Example G22A, (+)5-[2-[[2-(4-cyclopropylsulfonylphenyl)-2-tetrahydropyran-4-yloxy-acetyl]amino]thiazol-5-yl]oxypyridine-3-carboxylic acid], the EC50 worked out at 0.29 µM and the Emax came out at 95%.
For `CC(C)(C(=O)O)c1ccc(Oc2cnc(NC(=O)C(OC3CCOCC3)c3ccc(S(=O)(=O)C4CC4)cc3)s2)cc1` (single isomer, unassigned; (+)) [Example G5A, (+)2-[4-[2-[[2-(4-cyclopropylsulfonylphenyl)-2-tetrahydropyran-4-yloxy-acetyl]amino]thiazol-5-yl]oxyphenyl]-2-methyl-propanoic acid] the same measures were 0.094 µM and 91%.
Turning to `O=C(O)c1cc(Oc2cnc(NC(=O)C(OC3CCOCC3)c3ccc(S(=O)(=O)C4CC4)cc3)s2)ccc1Cl` (stereo not shown) [Example B-23, 2-chloro-5-[2-[[2-(4-cyclopropylsulfonylphenyl)-2-tetrahydropyran-4-yloxy-acetyl]amino]thiazol-5-yl]oxy-benzoic acid], the EC50 was found to be 0.48 µM and the Emax was found to be 94%.
On to `O=C(Nc1ncc(C(O)CO)s1)C(Oc1ccc(F)cc1F)c1ccc(S(=O)(=O)C2CC2)cc1` (stereo not shown) [Example E3, 2-(4-cyclopropylsulfonylphenyl)-2-(2,4-difluorophenoxy)-N-[5-(1,2-dihydroxyethyl)thiazol-2-yl]acetamide], for which the EC50 was found to be 1.2 µM and the Emax turned out to be 88%.
Taken in the same sequence, the figures for `O=C(O)Cc1nc(NC(=O)C(OC2CCOCC2)c2ccc(S(=O)(=O)N3CCCCC3)cc2)sc1Cl` (single isomer, unassigned; (-)) [Example G3B, (−)2-[5-chloro-2-[[2-[4-(1-piperidylsulfonyl)phenyl]-2-tetrahydropyran-4-yloxy-acetyl]amino]thiazol-4-yl]acetic acid] were 0.42 µM and 94%.
For `O=C(O)C1CCc2nc(NC(=O)C(OC3CCOCC3)c3ccc(S(=O)(=O)C4CC4)cc3)sc2C1` (stereo not shown) [Example B-4, 2-[[2-(4-cyclopropylsulfonylphenyl)-2-tetrahydropyran-4-yloxy-acetyl]amino]-4,5,6,7-tetrahydro-1,3-benzothiazole-6-carboxylic acid], the EC50 worked out at 3.7 µM and the Emax worked out at 83%.
With `O=C(Nc1ncc(-n2cccn2)s1)C(Oc1ccc(F)cc1F)c1ccc(S(=O)(=O)C2CC2)cc1` (single isomer, unassigned; (+)) [Example G4A, (+)2-(4-cyclopropylsulfonylphenyl)-2-(2,4-difluorophenoxy)-N-(5-pyrazol-1-ylthiazol-2-yl)acetamide], the EC50 is 0.26 µM and the Emax turned out to be 91%.
`O=C(Nc1ncc(-n2cccn2)s1)C(Oc1ccc(F)cc1F)c1ccc(S(=O)(=O)C2CC2)cc1` (single isomer, unassigned; (-)) [Example G4B, (−)2-(4-cyclopropylsulfonylphenyl)-2-(2,4-difluorophenoxy)-N-(5-pyrazol-1-ylthiazol-2-yl)acetamide]: the EC50 was found to be 0.64 µM and the “% Emax (with respect to % ΔS0.5)” value is 79%.
On to `O=C(O)c1ccc(Oc2cnc(NC(=O)C(OC3CCOCC3)c3ccc(S(=O)(=O)C4CC4)cc3)s2)cc1Cl` (stereo not shown) [Example B-20, 2-chloro-4-[2-[[2-(4-cyclopropylsulfonylphenyl)-2-tetrahydropyran-4-yloxy-acetyl]amino]thiazol-5-yl]oxy-benzoic acid], for which the EC50 worked out at 0.59 µM and the Emax worked out at 94%.
Taken in the same sequence, the figures for `O=C(O)c1cc(-c2ccc(Oc3cnc(NC(=O)C(OC4CCOCC4)c4ccc(S(=O)(=O)C5CC5)cc4)s3)cc2)no1` (stereo not shown) [Example B-26, 3-[4-[2-[[2-(4-cyclopropylsulfonylphenyl)-2-tetrahydropyran-4-yloxy-acetyl]amino]thiazol-5-yl]oxyphenyl]isoxazole-5-carboxylic acid] were 0.22 µM and 92%.
As for `CN1CCC(OC(C(=O)Nc2ncc(F)s2)c2ccc(S(=O)(=O)C3CC3)cc2)CC1` (stereo not shown) [Example A-32, 2-(4-Cyclopropylsulfonylphenyl)-N-(5-fluorothiazol-2-yl)-2-[(1-methyl-4-piperidyl)oxy]acetamide], the EC50 was more than 10 µM.
On to `Cc1ccc(Oc2cnc(NC(=O)C(O[C@@H]3CCOC3)c3ccc(S(=O)(=O)C4CC4)cc3)s2)cc1C(=O)O` (single isomer, unassigned; (+)) [Example G11A], for which the EC50 was found to be 0.57 µM and the Emax came out at 92%.
For `O=C(Nc1ncc(Oc2cccc(CO)c2)s1)C(OC1CCOCC1)c1ccc(S(=O)(=O)C2CC2)cc1` (stereo not shown) [Example D3, 2-(4-cyclopropylsulfonylphenyl)-N-[5-[3-(hydroxymethyl)phenoxy]thiazol-2-yl]-2-tetrahydropyran-4-yloxy-acetamide] the same measures were 0.14 µM and 92%.
Taken in the same sequence, the figures for `O=C(Nc1nc2ccc(C(O)CO)nc2s1)C(OC1CCOCC1)c1ccc(S(=O)(=O)C2CC2)cc1` (stereo not shown) [Example E2, 2-(4-Cyclopropanesulfonyl-phenyl)-N-[5-(1,2-dihydroxy-ethyl)-thiazolo[5,4-b]pyridin-2-yl]-2-(tetrahydro-pyran-4-yloxy)-acetamide] were 1.5 µM and 93%.
Consider `Cc1cc(Oc2cnc(NC(=O)C(OC3CCOCC3)c3ccc(S(=O)(=O)C4CC4)cc3)s2)ccc1C(=O)O` (single isomer, unassigned; (-)) [Example G1B, (−)4-[2-[[2-(4-cyclopropylsulfonylphenyl)-2-tetrahydropyran-4-yloxy-acetyl]amino]thiazol-5-yl]oxy-2-methyl-benzoic acid], for which the EC50 is 0.33 µM and the “% Emax (with respect to % ΔS0.5)” value is recorded as 92%.
